Assay results: US9994554B2, “Barbiturate and thiobarbiturate compounds for use in cancer therapy” (NUHOPE, LLC, priority 2011, dated 2018)
“And” between values parts separate entries of the source, which are not always exact repeats. Equal values may be shown once. Read-outs that look alike come from different tables or passages of the source. *1 amine or outer side, *2 acyl side, *3 side chain or, on linkers, in order; H or OH if unused. Where a SMILES comes first, the peptide text is derived from it. Bridges are numbered along the chain shown (N, C = ends). Roman numbers before positions name the chains, in order. [ ]: non-standard residue; d: D form. Actinocin(9to1) = Cc1c2oc3c(C)ccc(C(=O)[*:1])c3nc-2c(C(=O)[*:2])c(N)c1=O; NMeV = CN[C@H](C(=O)O)C(C)C; Sar = CNCC(=O)O

Legend:
Hep G2 = Hep G2 resazurin cell assay (Example 14); format: cell-based; details: Homo sapiens, HepG2; read-out: Liver - Hepatocellular carcinoma Hep G2 pXC50 (converted)
Procedure: (§1) In this assay, cell lines were tested broadly using the same method as the U87 cell line assay of Example 13. NCI-H1299, CCF-STTG1 and Hep G2 cells were obtained from the ATCC. These cell lines were tested as previously described with the following modifications. NCI-H1299, CCF-STTG1 were maintained in RPMI-1640 Medium plus 10% fetal bovine serum and 1% penicillin/streptomycin, while Hep G2 cells were maintained in Eagle's Minimum Essential Medium plus 10% fetal bovine serum and 1% penicillin/streptomycin. Cells were plated at a density of 1×10^4 per ml except CFF-STTG1 cells which were seeded at a density of 2.5×10^4 per ml.

U87-MG cells = assay: U87-MG resazurin cell assay (Example 13); format: cell-based; details: Homo sapiens, U-87 MG
Procedure: U87-MG cells were obtained from the ATCC, LGC Standards (#HTB-14). The cells were screened for mycoplasma (Mycoplasma Experience) and maintained in Biowhittaker Alpha MEM (Lonza #BE02-002F+10% dialyzed US FBS serum (Invitrogen #26400-044), 1% Penstrep (Gibco #15140-122).
Compounds to be tested were transferred into column 1 of a hit plate (96-well PPV Greiner #651201). 20 ul of DMSO was added to columns 2 to 11. The top concentration was 10 mM.
Serial dilution, ten-point one in three dilution curves were created using Perkin Elmer Janus (20 ul clear Robopack disposable tips #6000677 used).
2 ul of each of the compounds was transferred by pre-dispensing into black, clear bottom 96-well CellBIND Corning plates (Fisher #DPS-184-030R) using Platemate 2×2 (ThermoFisher Darts #5506).
200 μl of U87-MG cells were added to columns 1 to 11 at a density of 1000 cells per ml, and media only was dispensed into control column 12 using Wellmate (Small bore tubing set #201-30002).
After 5 days (120 hrs) incubation at 37° C. under 5% CO2 in a humidified incubator, the assay was “stopped” by addition of Resazurin sodium salt at 0.5 mM final concentration (Sigma R7017). The plates were incubated for a further 4 hrs before resorufin readout was taken from a Perkin Elmer EnVision, 550 nm excitation (photo550, Barcode 312), 580 nm emission (M580, Barcode 233), Top Mirror BODIPY (D555, Barcode 405).

CCF-STTG1 [1] = assay: CCF-STTG1 resazurin cell assay (Example 14); format: cell-based; details: Homo sapiens, read-out: Brain - Astrocytoma CCF-STTG1 pXC50 (converted)
Procedure: as §1

NCI-H1299 = NCI-H1299 resazurin cell assay (Example 14); format: cell-based; details: Homo sapiens, read-out: Lung - Non small cell lung carcinoma NCI-H1299 pXC50 (converted)
Procedure: as §1

U87-MG = assay: cells; details: Homo sapiens, U-87 MG, read-out: IC50 (μM) U87-MG
Procedure: (§2) Human neuroblastoma cell lines were cultured in Dulbecco's Modified Eagle Medium (DMEM)/F12 media. Human glioma cells were ordered from American Type Culture Collection (ATCC, Manassas, Va.), and maintained in DMEM with 4×10^−3M L-glutamine, 100 U/ml penicillin, 100 μg/ml streptomycin, and 10% fetal bovine serum (FBS). All experiments were performed at 37° C. in 5% CO2 atmosphere under cell culture conditions. Prior to γ-radiation or exposure to chemotherapeutic agents, the glioma cells were plated at a density of 156 to 8,000 cells per well in 96 well plates to account for differences in growth rates, and to obtain similar cell densities for the experimental manipulations, and cultured overnight. Then cells received different dosages of γ-radiation from a ^60Co source GammaCell 220 (Nordion International Inc, Ontario, Canada) or chemotherapeutic agents for another 2-6 days. Cell cytotoxicity assay was determined by MTS [3-(4,5-dimethylthiazol-2-yl)-5-(3-carboxymethoxyphenyl)-2-(4-sulfophenyl)-2H-tetrazolium, inner salt] Cell Proliferation Assay (Promega, Madison, Wis.) or sulforhodamine B (SRB) assay at the end of the exposure period (47, 48).
(§3) Chemotype moiety compounds of CC-I were also tested on the Temodar-resistant CCF-STTG1 and Temodar®-sensitive U87-MG cell lines. The glioma cell culture and treatment is as described above.
(§4) The human glioma CCF-STTG1 cell lines were plated at a density of 5,000 cells per well in 96 well plates under standard DMEM cell culture conditions and then exposed to different concentrations of CC-I, merbarone, or ICRF-193 for 5 days. Merbarone and ICRF-193 are both topoisomerase II inhibitors (55, 56).

U251 = assay: Cytotoxicity (MTS or SRB assay), U251; format: cell-based; details: U-251; human astrocytoma or glioblastoma cell line
Procedure: (§5) Human neuroblastoma cell lines were cultured in Dulbecco's Modified Eagle Medium (DMEM)/F12 media. Human glioma cells were ordered from American Type Culture Collection (ATCC, Manassas, Va.), and maintained in DMEM with 4×10^−3M L-glutamine, 100 U/ml penicillin, 100 μg/ml streptomycin, and 10% fetal bovine serum (FBS). All experiments were performed at 37° C. in 5% CO2 atmosphere under cell culture conditions. Prior to γ-radiation or exposure to chemotherapeutic agents, the glioma cells were plated at a density of 156 to 8,000 cells per well in 96 well plates to account for differences in growth rates, and to obtain similar cell densities for the experimental manipulations, and cultured overnight. […] Cell cytotoxicity assay was determined by MTS [3-(4,5-dimethylthiazol-2-yl)-5-(3-carboxymethoxyphenyl)-2-(4-sulfophenyl)-2H-tetrazolium, inner salt] Cell Proliferation Assay (Promega, Madison, Wis.) or sulforhodamine B (SRB) assay at the end of the exposure period (47, 48).

SW1088 = assay: Cytotoxicity (MTS or SRB assay), SW1088; format: cell-based, human
Procedure: Human glioma cells were ordered from American Type Culture Collection (ATCC, Manassas, Va.), and maintained in DMEM with 4×10^−3M L-glutamine, 100 U/ml penicillin, 100 μg/ml streptomycin, and 10% fetal bovine serum (FBS). All experiments were performed at 37° C. in 5% CO2 atmosphere under cell culture conditions. […] Then cells received different dosages of γ-radiation from a ^60Co source GammaCell 220 (Nordion International Inc, Ontario, Canada) or chemotherapeutic agents for another 2-6 days. Cell cytotoxicity assay was determined by MTS [3-(4,5-dimethylthiazol-2-yl)-5-(3-carboxymethoxyphenyl)-2-(4-sulfophenyl)-2H-tetrazolium, inner salt] Cell Proliferation Assay (Promega, Madison, Wis.) or sulforhodamine B (SRB) assay at the end of the exposure period (47, 48).

C282Y/SH-SY5Y = assay: cells; format: cell-based; details: C282Y HFE transfected human neuroblastoma SH-SY5Y
Procedure: as §5

CCF-STTG1 [2] = assay: cells; details: for IC50: Homo sapiens, CCF-STTG1, read-out: IC50 (μM) CCF-STTG1
Procedure: as §2
Temodar®-resistant cell lines were used to screen for compounds having the ability to decelerate the growth of, or kill, Temodar®-resistant cells. The efficacy of over 15,000 different compounds in the Drug Discovery Core at Pennsylvania State Hershey Medical Center was tested on Temodar®-resistant human neuroblastoma SH-SY5Y and human glioma CCF-STTG1 cell lines with a colorimetric cytotoxicity assay, the sulforhodamine B (SRB) assay (53).
as §3, §4

WT/SH-SY5Y = assay: Cytotoxicity, WT/SH-SY5Y neuroblastoma; format: cell-based; details: wild type HFE transfected human neuroblastoma SH-SY5Y
Procedure: as §5

MCF7 = assay: Cytotoxicity, MCF7; format: cell-based; details: MCF7; human breast adenocarcinoma cell line
Procedure: as §5

OVCAR-3 = assay: Cytotoxicity, ovarian cancer cells; format: cell-based; details: OVCAR-3; human ovarian carcinoma cell line
Procedure: To assess the effect of CC-I on the ovarian cancer cells, the cells were cultured overnight at a density of 5,000 to 10,000 cells per well in 96 well plates. Then the cells were treated with different concentrations of CC-I (Formula IV) or Formula V for another 3-6 days before cytotoxicity assay using MTS or SRB assay. The IC50 or LD50, 50% inhibition or lethal dose, of compounds is also determined using statistical software (GraphPad) as a general indicator of toxicity.

SVGp12 = assay: Cytotoxicity, SVGp12; format: cell-based; details: SVGp12; SV40 transformed human astrocyte cell line
Procedure: as §5

MCF10A = assay: Cytotoxicity, MCF10A; format: cell-based, human; details: Homo sapiens, MCF-10A; immortalized, non-transformed mammary epithelial cell line
CCF-STTG1 cells = assay: FITC-Annexin V/propidium iodide apoptosis assay; format: cell-based, human; details: CCF-STTG1, at 0.05 μg/ml (39.8 nM)
Procedure: An FITC-labeled Annexin V/propidium iodide apoptosis assay kit (Molecular Probes) was used to determine whether CC-I induces apoptosis in an astrocytoma cell line. […] The percentage of apoptotic cells by the CC-I treatment in CCF-STTG1 cells is from 10.9±0.16% at 5 pig/ml ([…]) to 48.7±0.33% at 10 μg/ml (36.2 μM). By comparison, the positive control, actinomycin D, induced apoptosis in 47.8±0.04% of the cells at 0.05 μg/ml (39.8 nM).

[3] = U87-MG, 5 days (120 hrs) incubation, read-out: Activity Score (Mean pXC50) (converted)
[4] = read-out: Brain - Glioblastoma U87 pXC50 (converted)

| SMILES | IC50 (Hep G2) [µM] | IC50 (U87-MG cells; [3]) [µM] | IC50 (U87-MG cells; [4]) [µM] | IC50 (CCF-STTG1 [1]) [µM] | IC50 (NCI-H1299) [µM] | also measured |
| --- | --- | --- | --- | --- | --- | --- |
| CCN1C(=O)NC(=O)/C(=C\C=C\c2ccco2)C1=O [DDD00124808] | 10 to 31.6 | 10 to 31.6 | 10 to 31.6 | 10 to 31.6 | 1 to 10 |  |
| CCN1C(=O)C(=C/C=C/c2ccco2)C(=O)N(CC)C1=O [DDD00124802] | 10 to 31.6 | 10 to 31.6 | 31.6 to 100 | 31.6 to 100 | 1 to 10 |  |
| Cn1nnc2c(C(N)=O)ncn2c1=O [Temodar ®, Temozolomide, reference compound] | > 100 |  | 10 to 31.6 | > 100 | > 100 | IC50 (U87-MG): 13.6 µM; IC50 (U251): 47.2 µM; IC50 (SW1088; SW1088, human astrocytoma or glioblastoma cell line, read-out: IC50 (μM) SW1088): 29.5 µM; IC50 (C282Y/SH-SY5Y): 92 µM; IC50 (CCF-STTG1 [2]): 306 µM; IC50 (WT/SH-SY5Y): 103 µM |
| O=C1NC(=S)NC(=O)C1=C/C=C/c1ccccc1 [Formula V] |  |  |  |  |  | IC50 (U87-MG): 1.8 µM; IC50 (MCF7): 3.2 µM; IC50 (OVCAR-3): 4.3 µM; IC50 (U251): 2.5 µM; IC50 (SW1088; Homo sapiens, SW1088, read-out: IC50 (μM) SW1088): 1.2 µM; LD50 (SW1088; SW-1088 astrocytoma cells): 0.3 μg/ml and 1.2 μM; IC50 (CCF-STTG1 [2]): 3 µM; cytotoxicity to CCF-STTG1 cell lines (in words) (CCF-STTG1 [2]; Temodar-resistant CCF-STTG1): greatest toxicity; IC50 (SVGp12): 1.6 µM; IC50 (MCF10A): 1.7 µM |
| O=C1NC(=O)C(=C/C=C/c2ccco2)C(=O)N1 [DDD00124807] | 10 to 31.6 | 10 to 31.6 | 10 to 31.6 | 10 to 31.6 | 1 to 10 |  |
| CCN1C(=O)C(=C/C=C/c2ccccc2)C(=O)N(CC)C1=S [DDD00124821] | > 100 | 31.6 to 100 | 31.6 to 100 | 10 to 31.6 | 10 to 31.6 |  |
| CCN1C(=O)C(=C/C=C/c2ccccc2)C(=O)N(CC)C1=O [DDD00125643] | 10 to 31.6 | 1 to 10 | 1 to 10 | 1 to 10 |  |  |
| Cc1c2oc3c(C)ccc(C(=O)N[C@@H]4C(=O)N[C@H](C(C)C)C(=O)N5CCC[C@H]5C(=O)N(C)CC(=O)N(C)[C@@H](C(C)C)C(=O)O[C@@H]4C)c3nc-2c(C(=O)N[C@@H]2C(=O)N[C@H](C(C)C)C(=O)N3CCC[C@H]3C(=O)N(C)CC(=O)N(C)[C@@H](C(C)C)C(=O)O[C@@H]2C)c(N)c1=O [actinomycin D, reference compound] (I: T[dV]P[Sar][NMeV] / II: T[dV]P[Sar][NMeV]; ester I:1-I:C, II:1-II:C; linker I:N-II:N via Actinocin(9to1)) |  |  |  |  |  | percentage of apoptotic cells (CCF-STTG1 cells): 47.8±0.04% |
| CCN1C(=O)NC(=O)/C(=C\C=C\c2ccccc2)C1=O [DDD00124809] | 1 to 10 | 1 to 10 | 1 to 10 | 1 to 10 |  |  |
| O=C1NC(=S)NC(=O)C1=C/C=C/c1ccco1 [DDD00124818] | > 100 | 10 to 31.6 | 10 to 31.6 | 10 to 31.6 | 1 to 10 |  |
| CN1C(=O)C(=Cc2ccco2)C(=O)N(C)C1=O [DDD00175280] |  | > 100 |  |  |  |  |
| CCN1C(=O)NC(=O)/C(=C\C=C\c2cccc(N(C)C)c2)C1=O [DDD00197341] |  | 1 to 10 |  |  |  |  |
| CCN1C(=O)NC(=O)/C(=C\C=C\c2ccc(OC)cc2)C1=O [DDD00175797] |  | 1 to 10 |  |  |  |  |
| CCN1C(=O)C(=C/C=C/c2cccc(Cl)c2)C(=O)N(CC)C1=S [DDD00175293] |  | 31.6 to 100 |  |  |  |  |
| CN1C(=O)C(=C/C=C/c2ccc(N(C)C)cc2)C(=O)N(C)C1=O [DDD00175795] |  | 31.6 to 100 |  |  |  |  |
| N#Cc1ccccc1/C=C/C=C1C(=O)NC(=O)NC1=O [DDD00197348] |  | 1 to 10 |  |  |  |  |
| CCN1C(=O)/C(=C/C=C/c2ccccc2OC)C(=O)NC1=S [DDD00197355] |  | 1 to 10 |  |  |  |  |
